# Key:
# [1] = Chemical stability of compound A in oily phases (HPLC-UV); assay type: physicochemical
# Method: The stability of the active agent was evaluated by liquid chromatography coupled to a UV detector (HPLC-UV).
# [2] = Maximum solubility of compound A in various oily phases; assay type: physicochemical
# [3] = system: ear of BALB/C mice; assay: Tolerance study: pro-inflammatory effect after single application to the mouse ear (ear thickness); assay type: in vivo; conditions: single topical application, 0.01% in acetone, 20 μl
# Method: The aim of the study is to evaluate the effect of a composition according to the invention on the pro-inflammatory activity associated with retinoids in general.
# A single application of 20 μl of the test products was administered to the ear of the mice on day 1. Clinical observations and measurements of the mouse ear thickness, directly linked to inflammation, are performed from day 2 up to day 12.
# [4] = Chemical stability of compound A in gel compositions (HPLC-UV assay); assay type: physicochemical; conditions: 4° C., room temperature and 40° C., up to 6 to 7 months
# Method: Compositions 1 and 2 according to Example 3 were placed under various stability conditions: 4° C., room temperature and 40° C., and were monitored for 6 to 7 months. At each stability checkpoint, compound A was assayed by HPLC-UV.
# [5] = in caprylic/capric acid triglycerides (Miglyol 812N)
# [6] = in diisopropyl adipate (Crodamol DA)
# [7] = in macrogol oleate (Labrafil M1944CS)
# [8] = in propylene glycol dicaprylate/dicaprate (Myritol PC)
# [9] = in propylene glycol monolaurate (Lauroglycol FCC)
compound,measurement,setting,value
"CC(C)(C)c1cc(-c2cc(-c3ccc(C(=O)O)cc3)ccc2OCCO)ccc1N1CCCC1 [Compound A, 3″-tert-butyl-4′-(2-hydroxyethoxy)-4″-pyrrolidin-1-yl-[1,1′;3′,1″]-terphenyl-4-carboxylic acid]",Stability,[1]; [5],6 months RT/40 °C
same,Stability,[1]; [6],6 months RT/40 °C
same,Stability,[1]; [7],6 months RT/40 °C
same,Stability,[1]; in octyldodecanol (Eutanol G),Unstable
same,Stability,[1]; [8],Unstable
same,Stability,"[1]; in propylene glycol monocaprylate (Capryol 90), RT = room temperature",6 months RT/40 °C
same,Stability,[1]; [9],6 months RT/40 °C
same,Stability,[1]; in sweet almond oil,6 months RT/40 °C
same,Maximum solubility,[2]; [5],0.019 % m/m
same,Maximum solubility,[2]; [6],0.297 % m/m
same,Maximum solubility,[2]; [7],0.156 % m/m
same,Maximum solubility,[2]; in mineral oil,0.0001 % m/m
same,Maximum solubility,[2]; in octyldodecanol (Eutanol G),0.137 % m/m
same,Maximum solubility,[2]; [8],0.069 % m/m
same,Maximum solubility,[2]; in propylene glycol monocaprylate (Capryol 90),0.802 % m/m
same,Maximum solubility,[2]; [9],0.296 % m/m
same,Maximum solubility,[2]; in sweet almond oil,0.011 % m/m
same,Increase in the thickness of the mouse ear versus acetone alone,[3],59%
same,Chemical stability of compound A in the gel compositions,[4],chemically stable

# — patent US10702604B2, “Lipid nanocapsules comprising a retinoid, nanodispersion and composition containing the same, process for preparing the same and use thereof in dermatology” (GALDERMA RESEARCH & DEVELOPMENT, priority 2012, dated 2020)
